Measurements reported in US12404289B2 (Gilead Sciences, Inc., priority 2020, dated 2025).
pEC50: −log10 of the molar value. Where two headings read alike, the source gives them in different places.

Assays:
Format in all cases: cell-based
SARS-CoV-2 = SARS-CoV-2 antiviral assay (A549-hACE2, Nano luciferase); details: A549-hACE2 cells, SARS-CoV2-Nano, MOI 0.025, 48 h, Table 4, read-out: EC50 SARS CoV2
[1] = test system: Respiratory syncytial virus (RSV) strain A2; experiment: Hep-2 RSV2 384-well assay (EC50-HEP2-384); details: HEp-2 cells, RSV A2, MOI=4, 4 days, Table 3
[2] = test system: Recombinant respiratory syncytial virus expressing the firefly luciferase protein (RSV-Fluc); experiment: microbe, parasite or virus in culture; details: Table 4
[3] = test system: Respiratory syncytial virus (RSV) strain A2; experiment: RSV antiviral assay (HEp-2, 96 well); details: read-out: EC50 RSV HEP2 96; HEp-2 cells, RSV A2, MOI=4, 4 days, 96 well; Table 3
[4] = test system: Respiratory syncytial virus recombinant with luciferase (RSV-Luc5); experiment: microbe, parasite or virus in culture; details: Table 3
[5] = human respiratory syncytial virus, HEp-2, 96 h
[6] = human respiratory syncytial virus, NHBE, 72 h, read-out: EC50 RSVFluc NHBE 96, NHBE cells, RSV-Fluc, MOI of 0.1, three days, 96 well
[7] = read-out: EC50 RSVFluc NHBE 96, NHBE cells, RSV-Fluc, MOI of 0.1, three days, 96 well
[8] = Severe acute respiratory syndrome coronavirus 2, 48 h
[9] = human respiratory syncytial virus, HEp-2, 72 h, read-out: EC50 RSVFluc-Hep2 384, HEp-2 cells, RSV-Luc5, MOI=0.5, 3 days, 384 well
[10] = read-out: EC50 RSVFluc-Hep2 384, HEp-2 cells, RSV-Luc5, MOI=0.5, 3 days, 384 well

CCC(=O)O[C@H]1[C@@H](OC(=O)CC)[C@](C#N)(c2ccc3c(N)ncnn23)O[C@@H]1COP(=O)(N[C@@H](C)C(=O)OC1CCC1)Oc1ccc(C(C)(C)C)cc1 (single isomer, unassigned) [Example 32a]
pEC50 (SARS-CoV-2): 6.80 | pEC50 [1, 5]: 7.60 | pEC50 [2, 6]: 7.78

CCC(=O)O[C@H]1[C@@H](OC(=O)CC)[C@](C#N)(c2ccc3c(N)ncnn23)O[C@@H]1COP(=O)(N[C@@H](C)C(=O)OC1CCC1)Oc1ccc(C(C)(C)C)cc1 (single isomer, unassigned) [Example 32b]
pEC50 (SARS-CoV-2): 7.22 | pEC50 [1]: 7.52 | pEC50 [2, 7]: 7.97

CC(=O)O[C@H]1[C@@H](OC(C)=O)[C@](C#N)(c2ccc3c(N)ncnn23)O[C@@H]1COP(=O)(N[C@@H](C)C(=O)OC1CCC1)Oc1ccc(C(C)(C)C)cc1 (single isomer, unassigned) [Example 33a]
pEC50 (SARS-CoV-2; [8]): 6.87 | pEC50 [1, 5]: 7.64 | pEC50 [2, 6]: 8.04

CC(=O)O[C@H]1[C@@H](OC(C)=O)[C@](C#N)(c2ccc3c(N)ncnn23)O[C@@H]1COP(=O)(N[C@@H](C)C(=O)OC1CCC1)Oc1ccc(C(C)(C)C)cc1 (single isomer, unassigned) [Example 33b]
pEC50 (SARS-CoV-2): 6.64 | pEC50 [1]: 7.57 | pEC50 [2, 7]: 7.91

CCOC(=O)[C@H](C)NP(=O)(OC[C@H]1O[C@@](C#N)(c2ccc3c(N)ncnn23)[C@H](OC(C)=O)[C@@H]1OC(C)=O)Oc1ccc(C23CC(C2)C3)cc1 (single isomer, unassigned) [Example 42a]
pEC50 (SARS-CoV-2): 6.92 | pEC50 [1, 5]: 7.17 | pEC50 [2, 6]: 8.02

CCOC(=O)[C@H](C)NP(=O)(OC[C@H]1O[C@@](C#N)(c2ccc3c(N)ncnn23)[C@H](OC(C)=O)[C@@H]1OC(C)=O)Oc1ccc(C23CC(C2)C3)cc1 (single isomer, unassigned) [Example 42b]
pEC50 (SARS-CoV-2): 7.29 | pEC50 [1]: 7.16 | pEC50 [2, 7]: 8.10

CCC(=O)O[C@H]1[C@@H](OC(=O)CC)[C@](C#N)(c2ccc3c(N)ncnn23)O[C@@H]1COP(=O)(N[C@@H](C)C(=O)OC1CC2(CCC2)C1)Oc1cccc2ccccc12 (single isomer, unassigned) [Example 87b]
pEC50 [3]: 8.08 | pEC50 (SARS-CoV-2): 7.79 | pEC50 [1, 5]: 7.35 | pEC50 [2, 6]: 8.13

CCC(CC)COC(=O)[C@H](C)NP(=O)(OC[C@H]1O[C@@](C#N)(c2ccc3c(N)ncnn23)[C@H](O)[C@@H]1O)Oc1ccc(C(C)(C)C)c2ccccc12 (single isomer, unassigned) [Example 170a]
pEC50 (SARS-CoV-2; [8]): 6.02 | pEC50 [4, 9]: 5.85

CCC(CC)COC(=O)[C@H](C)NP(=O)(OC[C@H]1O[C@@](C#N)(c2ccc3c(N)ncnn23)[C@H](O)[C@@H]1O)Oc1ccc(C(C)(C)C)c2ccccc12 (single isomer, unassigned) [Example 170b]
pEC50 (SARS-CoV-2): 6.03 | pEC50 [4, 10]: 6.07

CCC(CC)COC(=O)[C@H](C)NP(=O)(OC[C@H]1O[C@@](C#N)(c2ccc3c(N)ncnn23)[C@H](OC(C)=O)[C@@H]1OC(C)=O)Oc1ccc(C(C)(C)C)c2ccccc12 (single isomer, unassigned) [Example 171a]
pEC50 (SARS-CoV-2): 6.03 | pEC50 [4, 9]: 6.15

CCC(CC)COC(=O)[C@H](C)NP(=O)(OC[C@H]1O[C@@](C#N)(c2ccc3c(N)ncnn23)[C@H](OC(C)=O)[C@@H]1OC(C)=O)Oc1ccc(C(C)(C)C)c2ccccc12 (single isomer, unassigned) [Example 171b]
pEC50 (SARS-CoV-2): 6.38 | pEC50 [4, 10]: 6.27

CCC(=O)O[C@H]1[C@@H](OC(=O)CC)[C@](C#N)(c2ccc3c(N)ncnn23)O[C@@H]1COP(=O)(N[C@@H](C)C(=O)OCC(CC)CC)Oc1ccc(C(C)(C)C)c2ccccc12 (single isomer, unassigned) [Example 172a]
pEC50 [4, 9]: 6.13

CCC(=O)O[C@H]1[C@@H](OC(=O)CC)[C@](C#N)(c2ccc3c(N)ncnn23)O[C@@H]1COP(=O)(N[C@@H](C)C(=O)OCC(CC)CC)Oc1ccc(C(C)(C)C)c2ccccc12 (single isomer, unassigned) [Example 172b]
pEC50 (SARS-CoV-2; [8]): 6.06 | pEC50 [4, 10]: 6.21

CCC(CC)COC(=O)[C@H](C)NP(=O)(OC[C@H]1O[C@@](C#N)(c2ccc3c(N)ncnn23)[C@H](OC(=O)C(C)C)[C@@H]1OC(=O)C(C)C)Oc1ccc(C(C)(C)C)c2ccccc12 (single isomer, unassigned) [Example 173a]
pEC50 (SARS-CoV-2; [8]): 5.00 | pEC50 [4, 9]: 6.09

CCC(CC)COC(=O)[C@H](C)NP(=O)(OC[C@H]1O[C@@](C#N)(c2ccc3c(N)ncnn23)[C@H](OC(=O)C(C)C)[C@@H]1OC(=O)C(C)C)Oc1ccc(C(C)(C)C)c2ccccc12 (single isomer, unassigned) [Example 173b]
pEC50 [4, 10]: 6.12

C[C@H](NP(=O)(OC[C@H]1O[C@@](C#N)(c2ccc3c(N)ncnn23)[C@H](O)[C@@H]1O)Oc1ccc(Cl)cc1)C(=O)OC1CCCCCCC1 (single isomer, unassigned) [Example 174a]
pEC50 [4, 10]: 8.15

C[C@H](NP(=O)(OC[C@H]1O[C@@](C#N)(c2ccc3c(N)ncnn23)[C@H](O)[C@@H]1O)Oc1ccc(Cl)cc1)C(=O)OC1CCCCCCC1 (single isomer, unassigned) [Example 174b]
pEC50 [4, 10]: 7.20

C[C@H](NP(=O)(OC[C@H]1O[C@@](C#N)(c2ccc3c(N)ncnn23)[C@H](O)[C@@H]1O)Oc1ccc(C(C)(C)C)cc1)C(=O)OC1CC(C)(C)C1 (stereo partly drawn) [Example 93, 3,3-dimethylcyclobutyl ((((2R,3S,4R,5R)-5-(4-aminopyrrolo[2,1-f][1,2,4]triazin-7-yl)-5-cyano-3,4-dihydroxytetrahydrofuran-2-yl)methoxy)(4-(tert-butyl)phenoxy)phosphoryl)-L-alaninate]
pEC50 (SARS-CoV-2; [8]): 6.91 | pEC50 [1, 5]: 7.17 | pEC50 [2, 6]: 8.35

CC(C)C(=O)O[C@H]1[C@@H](OC(=O)C(C)C)[C@](C#N)(c2ccc3c(N)ncnn23)O[C@@H]1COP(=O)(N[C@@H](C)C(=O)OCC1CC1)Oc1ccc(C(C)(C)C)cc1 (stereo partly drawn) [Example 104a, (2R,3R,4R,5R)-2-(4-aminopyrrolo[2,1-f][1,2,4]triazin-7-yl)-5-((((4-(tert-butyl)phenoxy)(((S)-1-(cyclopropylmethoxy)-1-oxopropan-2-yl)amino)phosphoryl)oxy)methyl)-2-cyanotetrahydrofuran-3,4-diyl bis(2-methylpropanoate)]
pEC50 (SARS-CoV-2; [8]): 6.63 | pEC50 [1, 5]: 7.41 | pEC50 [2, 6]: 7.96

CCC(C)(C)CCOC(=O)[C@H](C)NP(=O)(OC[C@H]1O[C@@](C#N)(c2ccc3c(N)ncnn23)[C@H](OC(C)=O)[C@@H]1OC(C)=O)Oc1ccccc1 (stereo partly drawn) [Example 106b, (2R,3R,4R,5R)-2-(4-aminopyrrolo[2,1-f][1,2,4]triazin-7-yl)-2-cyano-5-((((((S)-1-((3,3-dimethylpentyl)oxy)-1-oxopropan-2-yl)amino)(phenoxy)phosphoryl)oxy)methyl)tetrahydrofuran-3,4-diyl Diacetate]
pEC50 (SARS-CoV-2): 7.01 | pEC50 [1]: 7.47 | pEC50 [2, 6]: 7.91

COC(C)(C)COC(=O)[C@H](C)NP(=O)(OC[C@H]1O[C@@](C#N)(c2ccc3c(N)ncnn23)[C@H](OC(=O)C(C)C)[C@@H]1OC(=O)C(C)C)Oc1cccc2ccccc12 (stereo partly drawn) [Example 133, (2R,3R,4R,5R)-2-(4-aminopyrrolo[2,1-f][1,2,4]triazin-7-yl)-2-cyano-5-((((((S)-1-(2-methoxy-2-methylpropoxy)-1-oxopropan-2-yl)amino)(naphthalen-1-yloxy)phosphoryl)oxy)methyl)tetrahydrofuran-3,4-diyl bis(2-methylpropanoate)]
pEC50 (SARS-CoV-2; [8]): 7.43 | pEC50 [1, 5]: 7.47 | pEC50 [2, 6]: 7.86

CCC(CC)COC(=O)[C@H](C)NP(=O)(OC[C@H]1O[C@@](C#N)(c2ccc3c(N)ncnn23)[C@H](O)[C@@H]1O)Oc1ccc(C(C)(C)C)c2ccccc12 (stereo partly drawn) [Example 170, 2-ethylbutyl ((((2R,3S,4R,5R)-5-(4-aminopyrrolo[2,1-f][1,2,4]triazin-7-yl)-5-cyano-3,4-dihydroxytetrahydrofuran-2-yl)methoxy)((4-(tert-butyl)naphthalen-1-yl)oxy)phosphoryl)-L-alaninate]
pEC50 [4, 9]: 6.00

CCC(CC)COC(=O)[C@H](C)NP(=O)(OC[C@H]1O[C@@](C#N)(c2ccc3c(N)ncnn23)[C@H](OC(=O)C(C)C)[C@@H]1OC(=O)C(C)C)Oc1ccc(C(C)(C)C)c2ccccc12 (stereo partly drawn) [Example 173, (2R,3R,4R,5R)-2-(4-aminopyrrolo[2,1-f][1,2,4]triazin-7-yl)-5-(((((4-(tert-butyl)naphthalen-1-yl)oxy)(((S)-1-(2-ethylbutoxy)-1-oxopropan-2-yl)amino)phosphoryl)oxy)methyl)-2-cyanotetrahydrofuran-3,4-diyl bis(2-methylpropanoate)]
pEC50 [4, 9]: 6.10

C[C@H](NP(=O)(OC[C@H]1O[C@@](C#N)(c2ccc3c(=N)n(COP(=O)(O)OCc4ccccc4)cnn23)[C@H](O)[C@@H]1O)Oc1cccc2ccccc12)C(=O)OC1CC2(CCC2)C1 (stereo partly drawn) [Example 176, spiro[3.3]heptan-2-yl ((((2R,3S,4R,5R)-5-(3-((((benzyloxy)(hydroxy)phosphoryl)oxy)methyl)-4-imino-3,4-dihydropyrrolo[2,1-f][1,2,4]triazin-7-yl)-5-cyano-3,4-dihydroxytetrahydrofuran-2-yl)methoxy)(naphthalen-1-yloxy)phosphoryl)-L-alaninate]
pEC50 [4, 9]: 6.81
